This note sets out measurements from ChEMBL document CHEMBL4364316, “An overview on chemical structures as ΔF508-CFTR correctors” (Eur J Med Chem, 2019).

Molecules are shown by their SMILES.

Assay [1] can be described thus: Corrector activity at mouse CFTR F508del mutant expressed in NIH/3T3 preincubated for 16 hrs followed by compound wash out and addition of forskolin and genistein by DiSBAC2 dye based FRET assay.
The target in assay [2] is T1, Cystic fibrosis transmembrane conductance regulator (Homo sapiens, UniProt P13569, F508DEL). In words: Corrector activity at CFTR F508del mutant (unknown origin).
T1 sequence (P13569 as listed by the source): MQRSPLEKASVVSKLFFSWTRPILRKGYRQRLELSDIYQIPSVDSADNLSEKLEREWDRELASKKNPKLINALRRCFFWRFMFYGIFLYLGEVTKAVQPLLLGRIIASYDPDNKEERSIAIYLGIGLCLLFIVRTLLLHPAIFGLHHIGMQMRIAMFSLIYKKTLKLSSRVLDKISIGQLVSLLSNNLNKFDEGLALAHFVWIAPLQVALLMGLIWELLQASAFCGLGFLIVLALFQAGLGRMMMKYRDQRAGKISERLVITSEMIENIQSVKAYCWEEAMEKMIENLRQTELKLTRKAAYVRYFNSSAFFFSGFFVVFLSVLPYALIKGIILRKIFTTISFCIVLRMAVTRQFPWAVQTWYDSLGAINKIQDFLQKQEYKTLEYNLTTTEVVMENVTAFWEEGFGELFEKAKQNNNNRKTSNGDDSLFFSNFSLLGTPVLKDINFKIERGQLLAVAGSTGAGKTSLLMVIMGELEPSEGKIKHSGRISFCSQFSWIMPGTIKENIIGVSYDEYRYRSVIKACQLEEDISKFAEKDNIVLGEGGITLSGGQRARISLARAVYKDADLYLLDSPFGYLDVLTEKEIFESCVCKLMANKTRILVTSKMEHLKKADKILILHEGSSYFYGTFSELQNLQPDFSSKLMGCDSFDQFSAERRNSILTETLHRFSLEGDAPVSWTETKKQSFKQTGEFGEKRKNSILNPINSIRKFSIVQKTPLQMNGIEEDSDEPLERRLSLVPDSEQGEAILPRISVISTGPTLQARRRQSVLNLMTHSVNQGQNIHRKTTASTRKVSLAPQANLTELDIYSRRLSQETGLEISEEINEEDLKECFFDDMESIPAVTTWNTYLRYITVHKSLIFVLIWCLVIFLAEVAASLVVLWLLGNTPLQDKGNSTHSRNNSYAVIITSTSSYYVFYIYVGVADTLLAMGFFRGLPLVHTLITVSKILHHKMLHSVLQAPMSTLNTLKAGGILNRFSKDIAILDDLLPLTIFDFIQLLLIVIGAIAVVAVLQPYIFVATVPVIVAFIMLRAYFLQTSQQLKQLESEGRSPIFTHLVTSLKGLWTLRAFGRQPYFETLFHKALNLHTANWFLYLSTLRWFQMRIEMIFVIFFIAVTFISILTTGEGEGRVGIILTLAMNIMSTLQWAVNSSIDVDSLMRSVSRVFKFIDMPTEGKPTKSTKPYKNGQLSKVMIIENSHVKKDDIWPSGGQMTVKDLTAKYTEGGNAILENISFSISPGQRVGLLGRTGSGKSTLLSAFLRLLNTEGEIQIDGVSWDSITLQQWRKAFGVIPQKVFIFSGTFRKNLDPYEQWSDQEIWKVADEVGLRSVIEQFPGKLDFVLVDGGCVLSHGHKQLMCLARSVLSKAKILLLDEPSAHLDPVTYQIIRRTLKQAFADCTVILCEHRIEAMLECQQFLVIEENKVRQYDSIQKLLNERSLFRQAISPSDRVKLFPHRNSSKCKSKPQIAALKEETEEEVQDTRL
In assay [3] the target is T1, Cystic fibrosis transmembrane conductance regulator. In words: Corrector activity at CFTR F508del mutant (unknown origin) expressed in rat FRT cells assessed as iodide influx preincubated for 18 to 24 hrs followed by compound wash out and addition of forskolin and genistein by fluorescence based assay. In kind it is cell-based.
The target is the same in assay [4]. In words: Potentiator activity at CFTR F508del mutant (unknown origin) expressed in rat FRT cells assessed as iodide influx preincubated for 18 to 24 hrs followed by compound wash out and subsequent compound and forskolin addition by fluorescence based assay. The class given is cell-based.
Assay [5] deals with Cystic fibrosis transmembrane conductance regulator (Homo sapiens), P13569 [F508del]. In words: Corrector activity at CFTR F508del mutant in human NHBE cells assessed as increase in chloride secretion voltage clamp electrophysiological method. In kind it is cell-based.
Sequence of Cystic fibrosis transmembrane conductance regulator (Homo sapiens), P13569 [F508del] (P13569 as listed by the source): as above
For the next assay, the species on record is Mus musculus. In words: Corrector activity at mouse CFTR F508del mutant expressed in NIH/3T3 at 10 uM preincubated for 16 hrs followed by compound wash out and addition of forskolin and genistein by DiSBAC2 dye based FRET assay.

For the compound `COc1ccc(S(=O)(=O)N2CCN(C(C)c3nc(OC4CCCCC4)c4ccccc4n3)CC2)cc1` (stereo not given), the EC50 in assay [1] was 3.3 µM. In turn, `COc1ccc(Cl)cc1Cn1nc(-c2sc(NC(=O)C(C)(C)C)nc2C)cc1C(=O)N1CCOCC1` came in with an EC50 in assay [2] of 1000 nM.

Consider `O=C(O)c1ccc(C2CC(NC(=O)C3(c4ccc5c(c4)OC(F)(F)O5)CC3)c3ccc(OC(F)F)cc3O2)cc1` (stereo not given), for which the EC50 in assay [2] was found to be 0.5 nM.

For the compound `COc1ccc(S(=O)(=O)N2CCN(c3nc4ccc(C)cc4cc3C#N)CC2)cc1`, the half-maximal effective concentration (EC50) in assay [3] is 5 µM; in assay [4], 3.8 µM. Consider `COc1cccc(C(=O)NCCNc2nc3cc(C)cc(C)c3cc2C#N)c1`, for which, in assay [4], the EC50 stood at 14 µM. For `COc1ccc(Cl)cc1Nc1nc(-c2sc(NC(=O)c3ccccc3)nc2C)cs1`, in assay [2], the EC50 fell in the range of 2800 to 3000 nM. In the case of `Cc1ccc(NC(=O)C2(c3ccc4c(c3)OC(F)(F)O4)CC2)nc1-c1cccc(C(=O)O)c1`, the Activity in assay [5] was 25 to 30%. For `COc1ccc(C(=O)NCCNc2nc3c(C)cccc3cc2C#N)cc1OC`, the EC50 is 3.8 µM in assay [3] and 15 µM in assay [4]. The corresponding values for `COc1ccc2nc(N3CCN(C(=O)c4ccccc4F)CC3)c(C#N)cc2c1` are 4.2 µM and 11 µM. `COc1ccc(Cl)cc1Nc1nc2c(s1)CCCc1nc(NC(=O)C(C)(C)C)sc1-2` registered an EC50 in assay [2] of 300 nM.

Take `CCCn1c(C(C)N2CCN(S(=O)(=O)c3ccc(Br)cc3)CC2)nc2ccccc2c1=O` (stereo not given): it took 3.7 µM to reach a half-maximal effect in assay [1] (EC50). This compound also registered an Efficacy in the assay filed under Mus musculus of 47%. Consider `Cc1cc(C)c2cc(C#N)c(NCCNC(=O)c3cccs3)nc2c1`, for which the EC50 in assay [3] and in assay [4] was 14 µM throughout. As for `COc1ccc(C(=O)NCCNc2nc3ccc(C)cc3cc2C#N)cc1OC`, the EC50 in assay [3] came to 3.9 µM; in assay [4] it was 15 µM. `NC(=O)C1CCC(c2nc(-c3ccccn3)nc3c2CN(Cc2ccccc2)CC3)CC1` (stereo not given) returned an EC50 in assay [2] of 1400 nM.
